US9011880B2, “Compounds and methods for treating cancer” (IGF Oncology, LLC, priority 2003, dated 2015)
pIC50: −log10 of the molar value.

Experiments:
[1] = test system: MDA-MB-231 breast cancer cells; details: cells incubated with insulin; cited from earlier work
LNCAP cells [2] = test: In vitro proliferation assay, LNCaP (Example 8); format: cell-based, human
Procedure: LNCaP, MCF7 and MCF7-L cell lines were plated, respectively, in a 96-well plate at 5,000 cells per well in RPMI+glutamine+10% FCS medium in 100 μl. After 24 hours, 100 μl fresh medium was added containing no drug (control), IGF-MTX or MTX at the indicated concentration.

MCF7-L tumors = test: MCF7-L xenograft tumor growth in nu/nu mice; format: in vivo, mouse; details: day 22; IGF-MTX 10 nmol of MTX/g or free MTX 40 nmol/g, tail vein, days 0 and 5
Procedure: MCF7 cells (human breast adenocarcinoma cell line) were grown in Eagle's minimal essential medium supplemented with 0.1 mg/ml insulin and 10% FCS. The estrogen-dependent MCF7-L cell line was a gift from Deepali Sachdev of the University of Minnesota. MCF7-L cells were grown in modified IMEM medium (Invitrogen, Carlsbad, Calif., USA) supplemented with 0.1 mg/ml insulin. LNCaP cells (metastatic human prostatic adenocarcinoma) were grown in RPMI supplemented with glutamine and 10% FCS (Invitrogen, Carlsbad, Calif., USA). Cells were grown at 37° C. in a 5% CO2 humidified atmosphere. In each case, cells were grown to approximately two-thirds confluence, harvested by trypsinization, washed with rich medium and then washed twice with PBS and resuspended in phosphate buffered saline in BD matrigel matrix (Becton Dickinson, Franklin Lakes, N.J., USA). Cells were injected intradermally in mice on the back. An estrogen pellet (0.5 mg estradiol, 60-day release, Innovative Research of America, Sarasota, Fla., USA) was implanted subcutaneously between the shoulder blades two days before implanting MCF7 and MCF7-L cells. MCF7 and MCF7-L cells were implanted in 8-week-old female nu/nu mice. LNCaP cells were implanted in 8-week-old male nu/nu mice. […] MTX was dissolved in PBS. Untreated vehicle controls received 2 mM HCl, 1% glycerol. […]

IGF-1R = target: T1, IGF-1R (Homo sapiens, UniProt P08069); test: Competitive binding assay to IGF-1R on MCF7 cell monolayers; details: competition against radiolabelled wild-type IGF-1, MCF7 cells
T1 construct: endogenous in cells; host or cells: MCF7 (human breast cancer cell line), near-confluent monolayers
Procedure: MCF7 cells were plated in a 24-well plate and incubated overnight at 37° C. in a 6.5% CO2 humidified atmosphere in DMEM+glutamine with 10% fetal calf serum (FCS) at a cell number to generate close to confluent monolayers. Cells were washed twice and placed in 0.1 M HEPES-NaOH, pH 7.5, 120 mM NaCl, 5 mM KCl, 1.2 mM MgSO4, 0.1% bovine serum albumin (binding buffer). The plate was preincubated at 4° C. for 1 hour. For the assay wells, long-R3-IGF-1 or IGF-MTX conjugate was added at the indicated concentration in binding buffer (positive controls had no addition). I^125-labeled IGF-1 was then added in the amount of 0.03 μCi per well. Plates were incubated at 4° C. overnight, and then washed twice in binding buffer. Cells were lysed with 300 mM NaOH, 1% SDS. The lysate of each well was counted by scintillation counting. Each condition was assayed in duplicate.
A competition binding assay between the IGF-MTX conjugate and radiolabelled IGF-1 was performed as described in the Materials and Methods. MCF7 cells were grown to near confluence, and incubated with unconjugated long-R3-IGF-1 or conjugated IGF-MTX in competition with radiolabelled wild-type IGF-1 (FIG. 9).

LNCAP tumors = test: LNCaP xenograft tumor growth in nu/nu mice; format: in vivo, mouse; details: for fold lower dose at which it is or appears more effective than free MTX: LNCaP xenografts (prostate cancer model in mice)
Procedure: (§1) MCF7 cells (human breast adenocarcinoma cell line) were grown in Eagle's minimal essential medium supplemented with 0.1 mg/ml insulin and 10% FCS. The estrogen-dependent MCF7-L cell line was a gift from Deepali Sachdev of the University of Minnesota. MCF7-L cells were grown in modified IMEM medium (Invitrogen, Carlsbad, Calif., USA) supplemented with 0.1 mg/ml insulin. LNCaP cells (metastatic human prostatic adenocarcinoma) were grown in RPMI supplemented with glutamine and 10% FCS (Invitrogen, Carlsbad, Calif., USA). Cells were grown at 37° C. in a 5% CO2 humidified atmosphere. In each case, cells were grown to approximately two-thirds confluence, harvested by trypsinization, washed with rich medium and then washed twice with PBS and resuspended in phosphate buffered saline in BD matrigel matrix (Becton Dickinson, Franklin Lakes, N.J., USA). Cells were injected intradermally in mice on the back. An estrogen pellet (0.5 mg estradiol, 60-day release, Innovative Research of America, Sarasota, Fla., USA) was implanted subcutaneously between the shoulder blades two days before implanting MCF7 and MCF7-L cells. MCF7 and MCF7-L cells were implanted in 8-week-old female nu/nu mice. LNCaP cells were implanted in 8-week-old male nu/nu mice. […] MTX was dissolved in PBS. Untreated vehicle controls received 2 mM HCl, 1% glycerol. Drug was administered intravenously by tail-vein injection in a volume of 12.5 μl per gram mouse weight. All studies were approved by the University of Minnesota Animal Care and Use Committee and conformed to relevant ethical guidelines.
In a final in vivo study, prostate cancer LNCaP cells were implanted intradermally on day 0 in mice, which were then randomized to different treatment groups.

LNCAP cells [3] = test: LNCAP proliferation in vitro (Example 5, cell counting kit-8)
Procedure: LNCAP cells were plated in a 96-well plate at 3,000 cells per well in RPMI medium supplemented with 10% fetal bovine serum (FBS). After incubation overnight, the medium in the wells was replaced with 100 μl per well of RPMI supplemented with 0.1% FBS. […] After incubation for 4 days, cell proliferation was assayed with the cell counting kit-8 (Dojindo Molecular Technologies, Gaithersburg, Md.).

MCF7 tumors = test: MCF7 xenograft tumor growth in nu/nu mice; format: in vivo, mouse
Procedure: as §1
Three in vivo studies were performed to assess the targeting of MTX with long-R3-IGF-1. In the initial preliminary study, breast cancer MCF7 cells were implanted intradermally in the backs of nude mice.

[4] = IGF-MTX- and MTX-related toxicity in mice (ill effects, body weight); details: mouse, in vivo
Procedure: as §1

T1 sequence (P08069 31-736 limits assumed): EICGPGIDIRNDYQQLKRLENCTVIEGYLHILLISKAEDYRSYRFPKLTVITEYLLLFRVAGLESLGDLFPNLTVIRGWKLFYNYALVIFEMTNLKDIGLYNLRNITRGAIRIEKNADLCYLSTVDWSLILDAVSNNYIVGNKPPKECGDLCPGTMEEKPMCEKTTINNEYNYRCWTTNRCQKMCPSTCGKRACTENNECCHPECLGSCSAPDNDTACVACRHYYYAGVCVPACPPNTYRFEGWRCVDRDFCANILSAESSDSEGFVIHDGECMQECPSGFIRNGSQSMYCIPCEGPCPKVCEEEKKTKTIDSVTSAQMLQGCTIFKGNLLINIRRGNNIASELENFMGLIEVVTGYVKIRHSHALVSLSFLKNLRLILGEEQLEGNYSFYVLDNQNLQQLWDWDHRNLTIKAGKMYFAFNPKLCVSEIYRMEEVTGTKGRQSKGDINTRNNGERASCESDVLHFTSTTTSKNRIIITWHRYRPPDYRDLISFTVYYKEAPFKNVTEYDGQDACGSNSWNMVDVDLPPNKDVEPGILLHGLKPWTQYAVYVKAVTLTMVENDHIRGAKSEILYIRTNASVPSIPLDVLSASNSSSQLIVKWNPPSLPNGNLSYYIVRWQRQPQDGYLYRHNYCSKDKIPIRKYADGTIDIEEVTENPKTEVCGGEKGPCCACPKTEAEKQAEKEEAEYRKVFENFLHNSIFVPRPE
T1 sequence (P08069 741-1367 limits assumed): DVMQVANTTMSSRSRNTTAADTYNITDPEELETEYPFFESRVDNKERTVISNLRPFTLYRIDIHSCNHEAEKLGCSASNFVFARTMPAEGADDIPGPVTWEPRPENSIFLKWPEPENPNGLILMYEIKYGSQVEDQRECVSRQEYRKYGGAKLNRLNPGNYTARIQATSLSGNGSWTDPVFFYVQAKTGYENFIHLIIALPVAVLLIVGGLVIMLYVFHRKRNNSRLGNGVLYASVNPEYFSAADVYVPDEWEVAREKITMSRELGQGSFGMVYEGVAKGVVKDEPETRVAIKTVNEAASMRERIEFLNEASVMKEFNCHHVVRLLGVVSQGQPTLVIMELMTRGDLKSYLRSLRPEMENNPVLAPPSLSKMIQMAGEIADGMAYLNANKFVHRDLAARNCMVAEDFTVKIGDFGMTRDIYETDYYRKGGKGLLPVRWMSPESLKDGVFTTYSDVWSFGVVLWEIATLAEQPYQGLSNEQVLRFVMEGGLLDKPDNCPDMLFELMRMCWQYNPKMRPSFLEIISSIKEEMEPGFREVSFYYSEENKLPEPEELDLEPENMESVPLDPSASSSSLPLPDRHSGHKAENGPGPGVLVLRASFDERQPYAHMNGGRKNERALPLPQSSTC

Cc1c2ccncc2c(C)c2c1[nH]c1ccccc12 [elipticine]
stimulation of uptake [1]: 2 fold

IGF-MTX
inhibition of proliferation compared to untreated control cells (LNCAP cells [2]; LNCaP): inhibited proliferation of LNCaP cells | higher concentration than free MTX required to achieve the same inhibitory effect (LNCAP cells [2]; LNCaP cells in vitro): about 2 times | pIC50 (LNCAP cells [2]; LNCaP, RPMI + 10% FCS, 48 hours with drug, IGF-MTX as concentration of MTX groups): ~6.00 | MCF7-L tumor growth inhibition (MCF7-L tumors): inhibited about equally | binding to the IGF receptor compared with long-R3-IGF-1 (IGF-1R): bound more tightly to the IGF receptor than long-R3-IGF-1 at most concentrations | LNCaP tumor growth inhibition (LNCAP tumors; 1.28 nmol/g (as MTX), single tail vein injection on day 5): did not inhibit tumor growth | LNCaP tumor size compared to mice treated with higher doses of free MTX (50, 20 or 8 nmol/g) (LNCAP tumors; 3.2 nmol/g (as MTX), single tail vein injection on day 5): much smaller | LNCaP tumor size compared to mice treated with higher doses of free MTX (50, 20 or 8 nmol/g) (LNCAP tumors; 8 nmol/g (as MTX), single tail vein injection on day 5): much smaller | fold lower dose at which more effective than free MTX (statistically significant) (LNCAP tumors; 8 nmol/g IGF-MTX vs. 50 nmol/g MTX, day 98, listed as IGF-methotrexate conjugate): 6.5 fold | fold lower dose at which it is or appears more effective than free MTX (LNCAP tumors; listed as IGF-MTX conjugate): more than 15 fold | fold lower dose at which it is or appears more effective than free MTX (LNCAP tumors; listed as IGF-methotrexate conjugate): 15 fold | Cell number (relative units) (LNCAP cells [3]; Minimal med. (0.1% FBS), MTX conc. 2 nM): .677 ± .057 relative units | Cell number (relative units) (LNCAP cells [3]; Minimal med. (0.1% FBS), MTX conc. 8 nM): .794 ± .028 relative units | Cell number (relative units) (LNCAP cells [3]; Minimal med. (0.1% FBS), MTX conc. 32 nM): .921 ± .014 relative units | Cell number (relative units) (LNCAP cells [3]; Minimal med. (0.1% FBS), MTX conc. 125 nM): .921 ± .014 relative units | Cell number (relative units) (LNCAP cells [3]; Minimal med. (0.1% FBS), MTX conc. 500 nM): .635 ± .038 relative units | Cell number (relative units) (LNCAP cells [3]; Minimal med. (0.1% FBS), MTX conc. 2000 nM): .255 ± .014 relative units | Cell number (relative units) (LNCAP cells [3]; Rich medium (10% FBS), MTX conc. 2 nM): 0.716 ± .021 relative units | Cell number (relative units) (LNCAP cells [3]; Rich medium (10% FBS), MTX conc. 8 nM): 0.674 ± .036 relative units | Cell number (relative units) (LNCAP cells [3]; Rich medium (10% FBS), MTX conc. 32 nM): 1.248 ± .018 relative units | Cell number (relative units) (LNCAP cells [3]; Rich medium (10% FBS), MTX conc. 125 nM): 0.891 ± .017 relative units | Cell number (relative units) (LNCAP cells [3]; Rich medium (10% FBS), MTX conc. 500 nM): 0.381 ± .008 relative units | Cell number (relative units) (LNCAP cells [3]; Rich medium (10% FBS), MTX conc. 2000 nM): 0.234 ± .004 relative units | MCF7 tumor growth (MCF7 tumors; 10 nmol of MTX/g intravenous, days 0, 4 and 8, 12 days of observation): showed no signs of tumor growth on average | fold lower molar dosage at which more effective than free MTX (MCF7 tumors; MCF7 xenografts): 4 fold | difference in tumor volume on average between IGF-MTX conjugate-treated group and MTX-treated group (MCF7 tumors; day 12, IGF-MTX 10 nmol of MTX/g vs free MTX 40 nmol/g): ~8 fold | Average weight of mice, Day 0 [4]: 17.8 g | Average weight of mice, Day 4 [4]: 18.6 g | Average weight of mice, Day 20 [4]: 20.1 g
